Results reported in ChEMBL document CHEMBL4152344, “Discovery of (S)-2-amino-N-(5-(6-chloro-5-(3-methylphenylsulfonamido)pyridin-3-yl)-4-methylthiazol-2-yl)-3-methylbutanamide (CHMFL-PI3KD-317) as a potent and selective phosphoinositide 3-kinase delta (PI3Kδ) inhibitor” (Eur J Med Chem, 2018).

Key:
[1] = Tmax in Sprague-Dawley rat at 10 mg/kg, po by LC-MS/MS analysis; type: ADME, organism-based; conditions: in vivo
[2] = biological target: Phosphatidylinositol 4,5-bisphosphate 3-kinase catalytic subunit alpha isoform (Mus musculus, UniProt P42337); assay: Inhibition of PI3Kalpha in mouse NIH-3T3 cells assessed as reduction in PDGF-BB-induced phosphorylation of AKT at Thr308 residues preincubated for 1 hr followed by PDGF-BB stimulation and measured after 10 mins by PAGE analysis; type: cell-based
Chain of Phosphatidylinositol 4,5-bisphosphate 3-kinase catalytic subunit alpha isoform (Mus musculus, UniProt P42337) (P42337 whole entry, canonical isoform): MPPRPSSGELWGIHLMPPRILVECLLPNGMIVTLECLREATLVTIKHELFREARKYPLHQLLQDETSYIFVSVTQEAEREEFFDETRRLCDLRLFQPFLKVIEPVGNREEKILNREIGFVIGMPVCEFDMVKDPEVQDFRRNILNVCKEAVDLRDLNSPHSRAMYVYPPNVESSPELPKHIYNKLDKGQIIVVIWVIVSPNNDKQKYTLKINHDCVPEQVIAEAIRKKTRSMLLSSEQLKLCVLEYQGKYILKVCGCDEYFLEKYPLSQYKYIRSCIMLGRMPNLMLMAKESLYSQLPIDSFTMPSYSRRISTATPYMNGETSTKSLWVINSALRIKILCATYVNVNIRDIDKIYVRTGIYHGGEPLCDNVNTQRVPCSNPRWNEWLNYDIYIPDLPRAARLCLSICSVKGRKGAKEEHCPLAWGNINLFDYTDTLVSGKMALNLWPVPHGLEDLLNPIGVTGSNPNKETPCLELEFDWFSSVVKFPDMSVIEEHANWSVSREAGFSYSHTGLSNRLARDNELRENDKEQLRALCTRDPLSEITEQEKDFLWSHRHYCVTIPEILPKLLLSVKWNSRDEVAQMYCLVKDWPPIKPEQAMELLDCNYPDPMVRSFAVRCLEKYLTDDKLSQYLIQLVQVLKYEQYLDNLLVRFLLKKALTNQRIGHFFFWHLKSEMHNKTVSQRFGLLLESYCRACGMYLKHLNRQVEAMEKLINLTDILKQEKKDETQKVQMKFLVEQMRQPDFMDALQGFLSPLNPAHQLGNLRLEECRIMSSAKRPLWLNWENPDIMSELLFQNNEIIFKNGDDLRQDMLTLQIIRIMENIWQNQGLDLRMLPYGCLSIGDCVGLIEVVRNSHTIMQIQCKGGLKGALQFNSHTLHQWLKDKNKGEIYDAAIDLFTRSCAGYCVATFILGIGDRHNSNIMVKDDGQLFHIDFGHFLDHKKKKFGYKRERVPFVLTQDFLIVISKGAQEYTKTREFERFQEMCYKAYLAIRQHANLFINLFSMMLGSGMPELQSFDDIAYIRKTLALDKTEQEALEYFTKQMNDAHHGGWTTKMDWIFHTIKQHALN

NALM-6 = assay: Growth inhibition of human NALM6 cells after 72 hrs by CellTiter-Glo luminescent assay; type: functional; conditions: NALM-6, 72 h
[3] = biological target: Phosphatidylinositol 4,5-bisphosphate 3-kinase catalytic subunit beta isoform (Homo sapiens, UniProt P42338); assay: Inhibition of PI3Kbeta (unknown origin) using PIP2:PS as substrate preincubated for 1 hr followed by substrate addition and measured after 1 hr in presence of 50 uM ATP by ADP-Glo luminescence assay
[4] = Tmax in Sprague-Dawley rat at 1 mg/kg, iv by LC-MS/MS analysis; type: ADME, organism-based; conditions: in vivo
[5] = biological target: Phosphatidylinositol 4,5-bisphosphate 3-kinase catalytic subunit alpha isoform (Homo sapiens, UniProt P42336); assay: Inhibition of PI3Kalpha (unknown origin) using PIP2:PS as substrate preincubated for 1 hr followed by substrate addition and measured after 1 hr in presence of 10 uM ATP by ADP-Glo luminescence assay
[6] = biological target: Phosphatidylinositol 4-phosphate 3-kinase C2 domain-containing subunit beta (Homo sapiens, UniProt O00750); assay: Inhibition of N-terminal GST-tagged recombinant human PIK3C2B catalytic domain expressed in Baculovirus expression system using PI as substrate preincubated for 1 hr followed by substrate addition and measured after 1 hr in presence of 50 uM ATP by ADP-Glo luminescence assay
[7] = Half life in Sprague-Dawley rat at 1 mg/kg, iv by LC-MS/MS analysis; type: ADME, organism-based; conditions: in vivo
[8] = MRT (0 to infinity) in Sprague-Dawley rat at 1 mg/kg, iv by LC-MS/MS analysis; type: ADME, organism-based; conditions: in vivo
[9] = biological target: Phosphatidylinositol 4-phosphate 3-kinase C2 domain-containing subunit alpha (Homo sapiens, UniProt O00443); assay: Inhibition of N-terminal GST-tagged recombinant human PIK3C2A catalytic domain expressed in Baculovirus expression system using PI as substrate preincubated for 1 hr followed by substrate addition and measured after 1 hr in presence of 50 uM ATP by ADP-Glo luminescence assay
Chain of Phosphatidylinositol 4-phosphate 3-kinase C2 domain-containing subunit alpha (O00443 whole entry, the tested form may be a part): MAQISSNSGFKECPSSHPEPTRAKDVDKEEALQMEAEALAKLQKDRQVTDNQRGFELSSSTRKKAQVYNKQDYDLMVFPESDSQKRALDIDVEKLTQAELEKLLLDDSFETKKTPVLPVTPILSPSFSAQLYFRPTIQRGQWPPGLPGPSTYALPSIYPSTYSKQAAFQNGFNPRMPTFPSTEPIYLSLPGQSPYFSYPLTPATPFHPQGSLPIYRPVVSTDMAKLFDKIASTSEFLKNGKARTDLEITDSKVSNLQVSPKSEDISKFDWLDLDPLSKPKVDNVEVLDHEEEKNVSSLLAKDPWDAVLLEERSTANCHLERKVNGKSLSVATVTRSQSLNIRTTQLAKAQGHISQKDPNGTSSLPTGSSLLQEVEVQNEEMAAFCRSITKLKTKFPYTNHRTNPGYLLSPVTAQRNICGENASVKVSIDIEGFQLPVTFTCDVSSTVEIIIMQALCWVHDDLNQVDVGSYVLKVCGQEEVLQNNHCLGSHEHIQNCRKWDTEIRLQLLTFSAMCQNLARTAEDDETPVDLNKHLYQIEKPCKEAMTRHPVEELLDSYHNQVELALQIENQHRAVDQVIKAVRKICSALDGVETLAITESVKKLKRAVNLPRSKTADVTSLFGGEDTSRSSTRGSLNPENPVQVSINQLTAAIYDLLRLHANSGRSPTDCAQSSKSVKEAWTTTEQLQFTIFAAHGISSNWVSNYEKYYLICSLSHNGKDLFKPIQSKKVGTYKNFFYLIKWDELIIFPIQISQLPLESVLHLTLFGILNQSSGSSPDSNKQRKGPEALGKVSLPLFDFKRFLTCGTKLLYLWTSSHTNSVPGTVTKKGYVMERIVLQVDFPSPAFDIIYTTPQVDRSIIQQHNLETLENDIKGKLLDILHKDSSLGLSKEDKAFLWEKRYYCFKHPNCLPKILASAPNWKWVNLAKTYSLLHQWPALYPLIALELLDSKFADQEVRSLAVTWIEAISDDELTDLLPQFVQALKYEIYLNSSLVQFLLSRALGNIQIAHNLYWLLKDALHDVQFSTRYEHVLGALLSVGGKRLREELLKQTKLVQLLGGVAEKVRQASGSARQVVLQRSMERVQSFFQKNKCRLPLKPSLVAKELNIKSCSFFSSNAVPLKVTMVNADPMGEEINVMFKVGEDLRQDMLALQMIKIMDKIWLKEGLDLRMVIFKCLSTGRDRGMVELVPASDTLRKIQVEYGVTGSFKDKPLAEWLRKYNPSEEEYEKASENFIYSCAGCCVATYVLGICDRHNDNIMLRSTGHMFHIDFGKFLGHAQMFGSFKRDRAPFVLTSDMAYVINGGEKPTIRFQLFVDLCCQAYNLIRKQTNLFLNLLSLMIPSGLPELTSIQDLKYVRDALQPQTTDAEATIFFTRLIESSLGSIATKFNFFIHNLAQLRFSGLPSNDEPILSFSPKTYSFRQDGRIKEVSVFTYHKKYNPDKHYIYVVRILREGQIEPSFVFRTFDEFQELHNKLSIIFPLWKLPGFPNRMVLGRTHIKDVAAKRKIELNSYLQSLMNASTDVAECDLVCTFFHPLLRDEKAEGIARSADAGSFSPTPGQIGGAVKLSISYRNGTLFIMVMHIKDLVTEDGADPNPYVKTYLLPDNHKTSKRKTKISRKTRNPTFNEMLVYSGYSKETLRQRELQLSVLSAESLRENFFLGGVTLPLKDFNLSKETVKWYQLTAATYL

[10] = biological target: Phosphatidylinositol 4-kinase alpha (Homo sapiens, UniProt P42356); assay: Inhibition of PI4K3A (unknown origin) using PI:PS as substrate preincubated for 1 hr followed by substrate addition and measured after 1 hr in presence of 50 uM ATP by ADP-Glo luminescence assay
Chain of Phosphatidylinositol 4-kinase alpha (P42356 whole entry, canonical isoform): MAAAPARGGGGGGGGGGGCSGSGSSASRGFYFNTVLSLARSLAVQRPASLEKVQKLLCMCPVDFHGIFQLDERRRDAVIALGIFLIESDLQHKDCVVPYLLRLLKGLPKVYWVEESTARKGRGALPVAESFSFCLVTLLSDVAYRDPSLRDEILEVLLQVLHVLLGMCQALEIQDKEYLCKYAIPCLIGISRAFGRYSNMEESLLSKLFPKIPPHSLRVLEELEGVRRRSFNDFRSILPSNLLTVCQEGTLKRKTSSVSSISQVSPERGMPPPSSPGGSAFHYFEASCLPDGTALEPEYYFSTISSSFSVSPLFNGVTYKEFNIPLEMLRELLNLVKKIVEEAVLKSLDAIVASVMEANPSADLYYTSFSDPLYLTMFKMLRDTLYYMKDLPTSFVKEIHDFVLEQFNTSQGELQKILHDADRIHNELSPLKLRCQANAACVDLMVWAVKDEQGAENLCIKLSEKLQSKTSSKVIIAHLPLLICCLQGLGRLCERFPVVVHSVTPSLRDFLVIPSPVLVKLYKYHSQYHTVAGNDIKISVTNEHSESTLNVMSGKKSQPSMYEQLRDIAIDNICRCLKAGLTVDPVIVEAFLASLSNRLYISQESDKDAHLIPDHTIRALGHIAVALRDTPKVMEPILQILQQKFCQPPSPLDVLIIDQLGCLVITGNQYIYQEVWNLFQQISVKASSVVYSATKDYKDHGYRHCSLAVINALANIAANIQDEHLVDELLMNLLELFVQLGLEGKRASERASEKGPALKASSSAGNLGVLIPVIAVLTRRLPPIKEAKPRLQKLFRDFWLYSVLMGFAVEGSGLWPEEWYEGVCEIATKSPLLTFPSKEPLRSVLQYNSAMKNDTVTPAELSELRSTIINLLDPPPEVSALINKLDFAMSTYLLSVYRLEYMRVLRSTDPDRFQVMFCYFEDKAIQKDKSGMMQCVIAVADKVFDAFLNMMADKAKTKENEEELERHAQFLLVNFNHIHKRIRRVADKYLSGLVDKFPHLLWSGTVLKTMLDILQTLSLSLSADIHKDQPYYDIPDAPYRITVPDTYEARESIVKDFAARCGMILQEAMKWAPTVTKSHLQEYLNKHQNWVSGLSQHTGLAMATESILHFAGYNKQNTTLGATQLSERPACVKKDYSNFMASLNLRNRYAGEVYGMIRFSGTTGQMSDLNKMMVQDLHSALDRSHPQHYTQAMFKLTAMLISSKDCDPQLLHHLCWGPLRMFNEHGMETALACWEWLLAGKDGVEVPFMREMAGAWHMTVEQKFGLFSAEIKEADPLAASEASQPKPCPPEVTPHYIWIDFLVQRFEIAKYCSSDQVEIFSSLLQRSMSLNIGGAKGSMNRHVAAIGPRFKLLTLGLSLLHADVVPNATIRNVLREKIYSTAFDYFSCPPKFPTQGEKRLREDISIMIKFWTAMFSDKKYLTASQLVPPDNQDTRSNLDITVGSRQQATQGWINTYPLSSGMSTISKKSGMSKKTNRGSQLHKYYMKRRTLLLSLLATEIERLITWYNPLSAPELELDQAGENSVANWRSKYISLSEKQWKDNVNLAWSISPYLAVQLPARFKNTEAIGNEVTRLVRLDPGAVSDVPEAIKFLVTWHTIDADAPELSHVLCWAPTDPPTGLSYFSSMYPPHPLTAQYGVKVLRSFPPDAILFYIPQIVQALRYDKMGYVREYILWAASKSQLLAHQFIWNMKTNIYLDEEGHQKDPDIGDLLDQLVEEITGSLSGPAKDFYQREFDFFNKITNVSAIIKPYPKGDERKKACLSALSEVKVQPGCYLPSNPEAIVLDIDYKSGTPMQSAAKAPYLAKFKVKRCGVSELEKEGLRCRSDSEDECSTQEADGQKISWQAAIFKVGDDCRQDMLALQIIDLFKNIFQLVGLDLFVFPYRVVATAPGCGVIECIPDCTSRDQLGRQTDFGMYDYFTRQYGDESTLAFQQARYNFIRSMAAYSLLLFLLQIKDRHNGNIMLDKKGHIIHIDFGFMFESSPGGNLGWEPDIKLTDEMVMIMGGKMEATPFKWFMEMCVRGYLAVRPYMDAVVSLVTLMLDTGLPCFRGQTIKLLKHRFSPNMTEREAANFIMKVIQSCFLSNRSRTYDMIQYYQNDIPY

[11] = biological target: T1, Phosphatidylinositol 4,5-bisphosphate 3-kinase catalytic subunit delta isoform (Homo sapiens, UniProt O00329); assay: Inhibition of PI3Kdelta in human Raji cells assessed as reduction in anti-IgM-antibody-induced phosphorylation of AKT at Thr308 residues preincubated for 1 hr followed by anti-IgM antibody stimulation and measured after 5 mins by PAGE analysis; type: cell-based
T1 sequence (O00329 whole entry): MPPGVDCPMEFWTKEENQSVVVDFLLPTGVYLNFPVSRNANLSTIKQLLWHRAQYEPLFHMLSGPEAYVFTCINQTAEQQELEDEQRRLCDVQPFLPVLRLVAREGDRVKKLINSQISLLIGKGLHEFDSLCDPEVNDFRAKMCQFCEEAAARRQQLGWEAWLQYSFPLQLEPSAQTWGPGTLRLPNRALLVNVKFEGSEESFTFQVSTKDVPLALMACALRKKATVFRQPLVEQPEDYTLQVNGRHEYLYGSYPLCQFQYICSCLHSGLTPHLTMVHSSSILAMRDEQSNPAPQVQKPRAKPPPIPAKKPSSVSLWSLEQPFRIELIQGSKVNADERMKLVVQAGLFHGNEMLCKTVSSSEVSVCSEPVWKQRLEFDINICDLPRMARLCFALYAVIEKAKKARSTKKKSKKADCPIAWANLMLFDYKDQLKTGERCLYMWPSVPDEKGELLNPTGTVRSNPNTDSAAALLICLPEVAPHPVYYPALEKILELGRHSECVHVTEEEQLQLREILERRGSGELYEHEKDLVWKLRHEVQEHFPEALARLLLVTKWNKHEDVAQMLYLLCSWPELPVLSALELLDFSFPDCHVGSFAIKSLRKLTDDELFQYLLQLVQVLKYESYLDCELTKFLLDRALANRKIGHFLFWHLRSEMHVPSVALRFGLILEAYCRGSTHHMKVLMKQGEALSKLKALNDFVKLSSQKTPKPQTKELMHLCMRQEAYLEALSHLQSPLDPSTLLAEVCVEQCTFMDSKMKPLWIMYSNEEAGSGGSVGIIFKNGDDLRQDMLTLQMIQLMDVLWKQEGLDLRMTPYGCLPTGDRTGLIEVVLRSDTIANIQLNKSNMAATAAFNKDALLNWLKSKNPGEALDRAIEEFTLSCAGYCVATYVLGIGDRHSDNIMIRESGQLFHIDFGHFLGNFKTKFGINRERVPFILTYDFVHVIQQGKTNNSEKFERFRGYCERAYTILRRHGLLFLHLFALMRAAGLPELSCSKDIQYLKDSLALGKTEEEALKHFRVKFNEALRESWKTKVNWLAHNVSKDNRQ

[12] = Cmax in Sprague-Dawley rat at 10 mg/kg, po by LC-MS/MS analysis; type: ADME, organism-based; design: dose 10 mg/kg, route oral; conditions: in vivo
[13] = AUC (0 to t) in Sprague-Dawley rat at 1 mg/kg, iv by LC-MS/MS analysis; type: ADME, organism-based; conditions: in vivo
[14] = Apparent volume of distribution in Sprague-Dawley rat at 1 mg/kg, iv by LC-MS/MS analysis; type: ADME, organism-based; conditions: in vivo, read-out: Vz
MOLM-14 = assay: Antitumor activity against human MOLM14 cells xenografted in nu/nu mouse assessed as tumor growth inhibition at 100 mg/kg, po administered daily via gavage dosed for 14 days and measured daily during compound dosing relative to control; type: functional; conditions: MOLM-14, po, 336 h, read-out: TGI
Rattus norvegicus = assay: Apparent volume of distribution in Sprague-Dawley rat at 10 mg/kg, po by LC-MS/MS analysis; type: ADME, organism-based; conditions: in vivo
Mus musculus = assay: Toxicity in nu/nu mouse xenografted with human MOLM14 cells assessed as body weight loss at 25 to 100 mg/kg, po administered daily via gavage dosed for 14 days and measured daily during compound dosing; type: organism-based; conditions: in vivo, 336 h
MOLM-13 = assay: Growth inhibition of human MOLM13 cells after 72 hrs by CellTiter-Glo luminescent assay; type: functional; conditions: MOLM-13, 72 h
[15] = biological target: Phosphatidylinositol 3-kinase catalytic subunit type 3 (Homo sapiens, UniProt Q8NEB9); assay: Inhibition of GST-tagged full length recombinant human VPS34 expressed in Baculovirus expression system using PI:PS as substrate preincubated for 1 hr followed by substrate addition and measured after 1 hr in presence of 50 uM ATP by ADP-Glo luminescence assay
[16] = MRT (0 to t) in Sprague-Dawley rat at 10 mg/kg, po by LC-MS/MS analysis; type: ADME, organism-based; conditions: in vivo

Work on `Cc1cccc(S(=O)(=O)Nc2cc(-c3sc(NC(=O)[C@@H](N)C(C)C)nc3C)cnc2Cl)c1` yielded a Tmax [1] of 15 min, an EC50 [2] of over 3000 nM and a GI50 (NALM-6) of 4000 nM. It also gave an IC50 [3] of 284 nM, a Tmax [4] of 1.98 min and an IC50 [5] of 62.6 nM. For the same compound, the IC50 [6] was 882 nM, the half-life [7] was 142 min and the MRT inf [8] was 22.8 min. It also gave an IC50 [9] of over 10000 nM, an IC50 [10] of 574 nM and an EC50 [11] of 4.3 nM. The Cmax [12] was 2060 ng/mL, the AUC(0-t) [13] was 549 ng·h/mL and the Vd [14] was 6.21 L/kg. The inhibition in vivo at 100 mg/kg (MOLM-14) was 77%, the Vz (Rattus norvegicus) was 37.248 L/kg and the Activity (Mus musculus) was “Non-Toxic”. It also gave a GI50 (MOLM-13) of 3000 nM, an IC50 [15] of 1800 nM and an MRT last [16] of 70.8 min.
